Data on 39 compounds can be found in patent US20240034729A9, “HETEROCYCLIC COMPOUND, INTERMEDIATE, PREPARATION METHOD THEREFOR AND APPLICATION THEREOF” (WUHAN LL SCIENCE AND TECHNOLOGY DEVELOPMENT CO., LTD., priority 2018, published 2024).

The target in this test is hP2X3 (human purinergic P2X receptor subtype 3) (Homo sapiens (Human), UniProt P56373). Briefly: FLIPR calcium assay, hP2X3 expressed in HEK293 cells. It is filed as cell-based. The following applies: read-out: P2X3 IC50.
Setting [1] is: HEK293 cells expressing hP2X3, agonist BZ-ATP 2.5 μM, class symbols.

Read-outs that look alike come from different tables or passages of the source. Where only a bound is given, the exact number is not on record here.

Chain of hP2X3 (human purinergic P2X receptor subtype 3) (P56373 whole entry): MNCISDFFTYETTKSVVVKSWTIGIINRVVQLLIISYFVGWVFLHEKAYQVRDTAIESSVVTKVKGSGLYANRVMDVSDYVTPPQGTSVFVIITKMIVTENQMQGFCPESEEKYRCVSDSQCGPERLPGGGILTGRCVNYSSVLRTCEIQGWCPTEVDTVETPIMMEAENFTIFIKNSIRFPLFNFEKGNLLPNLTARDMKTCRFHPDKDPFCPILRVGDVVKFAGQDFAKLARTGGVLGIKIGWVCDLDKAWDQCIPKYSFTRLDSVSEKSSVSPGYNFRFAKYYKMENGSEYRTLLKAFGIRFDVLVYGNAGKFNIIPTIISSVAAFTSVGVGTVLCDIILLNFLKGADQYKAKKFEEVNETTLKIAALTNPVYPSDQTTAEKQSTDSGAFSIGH

On to `COC(=O)N1CCO[C@@H](Cc2c(-c3c(F)cc(-n4cnc(C(=O)O)c4)cc3F)nc3cc(C)ccn23)C1` [Compound 107, (S)-1-(3,5-difluoro-4-(3-((4-(carbomethoxy<methoxycarbonyl>)morpholin-2-yl)methyl)-7-methylimidazo[1,2-a]pyridin-2-yl)phenyl)-1H-imidazole-4-carboxylic acid], for which the IC50 under setting [1] was in the range of 10 to 50 nM. Take `COC(=O)c1cn(-c2cc(F)c(-c3nc4cc(C)ccn4c3C[C@H]3CN(C(=O)OC)CCO3)c(F)c2)cn1` [Compound 108]: the IC50 under setting [1] fell in the range of 200 to 5000 nM. Turning to `COC(=O)N1CCO[C@@H](Cc2c(-c3c(F)cc(-n4cnc(C(F)(F)F)c4)cc3F)nc3cc(C)ccn23)C1` [Compound 109, methyl (S)-2-((2-(2,6-difluoro-4-(4-trifluoromethyl-1H-imidazol-1-yl)phenyl)-7-methylimidazo[1,2-a]pyridin-3-yl)methyl)morpholine-4-carboxylate], the IC50 was in the range of 50 to 200 nM. Consider `COC(=O)N1CCO[C@@H](Cc2c(-c3c(F)cc(-n4cnc(N)c4)cc3F)nc3cc(C)ccn23)C1` [Compound 111], for which the IC50 fell in the range of 10 to 50 nM. Turning to `COC(=O)N1CCO[C@@H](Cc2c(-c3c(F)cc(-n4cnc(OC)c4)cc3F)nc3cc(C)ccn23)C1` [Compound 112], under setting [1], the 50% inhibitory concentration (IC50) was in the range of 200 to 5000 nM. Regarding `COC(=O)N1CCO[C@@H](Cc2c(-c3c(F)cc(-n4cnc(C5(C(=O)O)CC5)c4)cc3F)nc3cc(C)ccn23)C1` [Compound 113], the IC50 under setting [1] fell in the range of 200 to 5000 nM. As to `COC(=O)N1CCO[C@@H](Cc2c(-c3c(F)cc(-c4nc(C(=O)O)co4)cc3F)nc3cc(C)ccn23)C1` [Compound 114, (S)-2-(3,5-difluoro-4-(3-((4-(methoxycarbonyl)morpholin-2-yl)methyl)-7-methylimidazo[1,2-a]pyridin-2-yl)phenyl)oxazole-4-carboxylic acid], the 50% inhibitory concentration (IC50) lay in the range of 10 to 50 nM.

As for `COC(=O)N1CCO[C@@H](Cc2c(-c3c(F)cc(-c4nc(C(C)(C)O)c[nH]4)cc3F)nc3cc(C)ccn23)C1` [Compound 115], the IC50 under setting [1] is 200 to 5000 nM.

As to `COC(=O)N1CCO[C@@H](Cc2c(-c3c(F)cc(-c4nc(C5(O)CC5)c[nH]4)cc3F)nc3cc(C)ccn23)C1` [Compound 116], the 50% inhibitory concentration (IC50) fell in the range of 10 to 50 nM.

With `COC(=O)N1CCO[C@@H](Cc2c(-c3c(F)cc(-n4cnc(C(C)(C)O)c4)cc3F)nc3cc(C)ccn23)C1` [Compound 117, methyl (S)-2-((2-(2,6-difluoro-4-(4-(2-hydroxypropan-2-yl)-1H-imidazol-1-yl)phenyl)-7-methylimidazo[1,2-a]pyridin-3-yl)methyl)morpholine-4-carboxylate], the half-inhibitory concentration (IC50) was in the range of 10 to 50 nM. As to `COC(=O)N1CCO[C@@H](Cc2c(-c3c(F)cc(-c4nc(C5(O)CC5)co4)cc3F)nc3cc(C)ccn23)C1` [Compound 118], the IC50 under setting [1] fell in the range of 200 to 5000 nM. As to `COC(=O)N1CCO[C@@H](Cc2c(-c3c(F)cc(-c4ncc(C#N)o4)cc3F)nc3cc(C)ccn23)C1` [Compound 120], the IC50 was less than 10 nM. Regarding `CCC(=O)N1CCO[C@@H](Cc2c(-c3c(F)cc(-c4nc(C#N)co4)cc3F)nc3cc(C)ccn23)C1` [Compound 121], the IC50 under setting [1] lay within 200 to 5000 nM.

As for `COC(=O)N1CCO[C@@H](Cc2c(-c3c(F)cc(-c4ncco4)cc3F)nc3cc(F)ccn23)C1` [Compound 122], the 50% inhibitory concentration (IC50) under setting [1] was 200 to 5000 nM. On to `COC(=O)N1CCO[C@@H](Cc2c(-c3c(F)cc(-c4ncco4)cc3F)nc3cc(CF)ccn23)C1` [Compound 123], for which the IC50 is 50 to 200 nM. `COC(=O)N1CCO[C@@H](Cc2c(-c3c(F)cc(-n4nccc4C#N)cc3F)nc3cc(C)ccn23)C1` [Compound 124-2]: the 50% inhibitory concentration (IC50) under setting [1] is no more than 10 nM. For the compound `COC(=O)N1CCO[C@@H](Cc2c(-c3c(F)cc(-n4ccc(C#N)n4)cc3F)nc3cc(C)ccn23)C1` [Compound 124], the 50% inhibitory concentration (IC50) was less than 10 nM. Same read-out and setting: as for `COC(=O)N1CCO[C@@H](Cc2c(-c3c(F)cc(-n4ccc(C(=O)O)n4)cc3F)nc3cc(C)ccn23)C1` [Compound 125, (S)-1-(3,5-difluoro-4-(3-((4-(methoxycarbonyl)morpholin-2-yl)methyl)-7-methylimidazo[1,2-a]pyridin-2-yl)phenyl)-1H-pyrazole-3-carboxylic acid], the figure is less than 10 nM. With `COC(=O)N1CCO[C@@H](Cc2c(-c3c(F)cc(-n4ccc(C(C)(C)O)n4)cc3F)nc3cc(C)ccn23)C1` [Compound 126, methyl (S)-2-((2-(2,6-difluoro-4-(3-(2-hydroxypropan-2-yl)-1H-pyrazol-1-yl)phenyl)-7-methylimidazo[1,2-a]pyridin-3-yl)methyl)morpholine-4-carboxylate], the IC50 lay in the range of 10 to 50 nM.

For the compound `COC(=O)N1CCO[C@@H](Cc2c(-c3c(F)cc(-n4cc(N)cn4)cc3F)nc3cc(C)ccn23)C1` [Compound 127, methyl (S)-2-((2-(4-(4-amino-1H-pyrazol-1-yl)-2,6-difluorophenyl)-7-methylimidazo[1,2-a]pyridin-3-yl)methyl)morpholine-4-carboxylate], the IC50 was less than 10 nM. Turning to `COC(=O)N1CCO[C@@H](Cc2c(-c3c(F)cc(-n4cc(O)cn4)cc3F)nc3cc(C)ccn23)C1` [Compound 128, methyl (S)-2-((2-(2,6-difluoro-4-(4-hydroxy-1H-pyrazol-1-yl)phenyl)-7-methylimidazo[1,2-a]pyridin-3-yl)methyl)morpholine-4-carboxylate], the 50% inhibitory concentration (IC50) under setting [1] was in the range of 200 to 5000 nM. In the case of `COC(=O)N1CCO[C@@H](Cc2c(-c3c(F)cc(-n4cc(OC)cn4)cc3F)nc3cc(C)ccn23)C1` [Compound 129, methyl (S)-2-((2-(2,6-difluoro-4-(4-methoxy-1H-pyrazol-1-yl)phenyl)-7-methylimidazo[1,2-a]pyridin-3-yl)methyl)morpholine-4-carboxylate], the IC50 lay within 10 to 50 nM. On to `COC(=O)N1CCO[C@@H](Cc2c(-c3c(F)cc(-n4ccc(C5(C(=O)O)CC5)n4)cc3F)nc3cc(C)ccn23)C1` [Compound 130, (S)-1-(1-(3,5-difluoro-4-(3-((4-(carbomethoxy<methoxycarbonyl>)morpholin-2-yl)methyl)-7-methylimidazo[1,2-a]pyridin-2-yl)phenyl)-1H-pyrazol-3-yl)cyclopropane-1-carboxylic acid], for which the IC50 under setting [1] was in the range of 200 to 5000 nM. Consider `COC(=O)N1CCO[C@@H](Cc2c(-c3c(F)cc(-n4ccc(C5(O)CC5)n4)cc3F)nc3cc(C)ccn23)C1` [Compound 131], for which the half-maximal inhibitory concentration (IC50) lay in the range of 10 to 50 nM. In the case of `COC(=O)N1CCO[C@@H](Cc2c(-c3c(F)cc(-n4ccnc4)cc3F)nc3cc(F)ccn23)C1` [Compound 132], the IC50 is less than 10 nM. Consider `COC(=O)N1CCO[C@@H](Cc2c(-c3c(F)cc(-n4ccc(S(N)(=O)=O)c4)cc3F)nc3cc(C)ccn23)C1` [Compound 134, methyl (S) 2-((2-(2,6-difluoro-4-(3-sulfamoyl-1H-pyrrol-1-yl)phenyl)-7-methylimidazo[1,2-a]pyridin-3-yl)methyl)morpholine-4-carboxylate], for which the IC50 fell in the range of 10 to 50 nM. In the case of `COC(=O)N1CCO[C@@H](Cc2c(-c3c(F)cc(-n4ccc(C(C)(C)O)c4)cc3F)nc3cc(C)ccn23)C1` [Compound 135], the IC50 was less than 10 nM. Take `COC(=O)N1CCO[C@@H](Cc2c(-c3c(F)cc(-n4ccc(C5(C(=O)O)CC5)c4)cc3F)nc3cc(C)ccn23)C1` [Compound 136]: the IC50 lay in the range of 50 to 200 nM. As to `COC(=O)N1CCO[C@@H](Cc2c(-c3c(F)cc(-n4ccc(C#N)c4)cc3F)nc3cc(C)ccn23)C1` [Compound 137], the half-inhibitory concentration (IC50) lay within 10 to 50 nM. For `CCC(=O)N1CCO[C@@H](Cc2c(-c3c(F)cc(-c4ccc(C#N)s4)cc3F)nc3cc(C)ccn23)C1` [Compound 140, (S)-5-(3,5-difluoro-4-(7-methyl-3-((4-propionylmorpholin-2-yl)methyl)imidazo[1,2-a]pyridin-2-yl)phenyl)thiophene-2-carbonitrile], the IC50 lay within 50 to 200 nM. In the case of `COC(=O)N1CCO[C@@H](Cc2c(-c3c(F)cc(-n4ccnn4)cc3F)nc3cc(C)ccn23)C1` [Compound 141, methyl (S)-2-((2-(2,6-difluoro-4-(1H-1,2,3-triazol-1-yl)phenyl)-7-methylimidazo[1,2-a]pyridin-3-yl)methyl)morpholine-4-carboxylate], the half-inhibitory concentration (IC50) fell in the range of 10 to 50 nM.

Consider `COC(=O)N1CCO[C@@H](Cc2c(-c3c(F)cc(-n4cncn4)cc3F)nc3cc(C)ccn23)C1` [Compound 142, methyl (S)-2-((2-(2,6-difluoro-4-(1H-1,2,4-triazol-1-yl)phenyl)-7-methylimidazo[1,2-a]pyridin-3-yl)methyl)morpholine-4-carboxylate], for which the IC50 is less than 10 nM. Take `COC(=O)N1CCO[C@@H](Cc2c(-c3c(F)cc(-n4cnnc4)cc3F)nc3cc(C)ccn23)C1` [Compound 143, methyl (S)-2-((2-(2,6-difluoro-4-(4H-1,2,4-triazol-4-yl)phenyl)-7-methylimidazo[1,2-a]pyridin-3-yl)methyl)morpholine-4-carboxylate]: the half-maximal inhibitory concentration (IC50) was less than 10 nM. As to `COC(=O)N1CCO[C@@H](Cc2c(-c3c(F)cc(-c4ccc(C(=O)O)cn4)cc3F)nc3cc(C)ccn23)C1` [Compound 145], the IC50 was 50 to 200 nM.

Consider `COC(=O)N1CCO[C@@H](Cc2c(-c3c(F)cc(NC(C)=O)cc3F)nc3cc(F)ccn23)C1` [Compound 148], for which the concentration for half-maximal inhibition (IC50) is less than 10 nM. For `COC(=O)N1CCO[C@@H](Cc2c(-c3c(F)cc(NC(C)=O)cc3F)nc3cc(CF)ccn23)C1` [Compound 150, methyl (S)-2-((2-(4-acetamido-2,6-difluorophenyl)-7-(fluoromethyl)imidazo[1,2-a]pyridin-3-yl)methyl)morpholine-4-carboxylate], the IC50 is less than 10 nM.

`COC(=O)N1CCO[C@@H](Cc2c(-c3c(F)cc(NS(C)(=O)=O)cc3F)nc3cc(C)ccn23)C1` [Compound 152]: the half-inhibitory concentration (IC50) is less than 10 nM. Still for that read-out and setting: then `COC(=O)N1CCO[C@@H](Cc2c(-c3c(F)cc(NC(C)=O)cc3F)nc3cc(C(F)(F)F)ccn23)C1` [Compound 153, methyl (S)-2-((2-(4-acetamido-2,6-difluorophenyl)-7-(trifluoromethyl)imidazo[1,2-a]pyridin-3-yl)methyl)morpholine-4-carboxylate], with 50 to 200 nM; and `CCC(=O)N1CCO[C@@H](Cc2c(-c3c(F)cc(NC(C)=O)cc3F)nc3cc(Cl)ccn23)C1` [Compound 154], with less than 10 nM.
